Data on 1 compound can be found in US20240082331A1, “ANTI-OBESITY COMPOSITION CONTAINING, AS ACTIVE INGREDIENT, MORINGA OLEIFERA FERMENTATION PRODUCT PREPARED USING NOVEL MONASCUS PURPUREUS SL1” (MBIOMETHERAPEUTICS CO., LTD., priority 2021, published 2024).

The assay relates to 3T3-L1 preadipocytes. Put plainly: Inhibition of adipocyte differentiation (AdipoRed assay). It is filed as cell-based, mice. The note with it: FIG. 3. The procedure:
Preadipocytes (3T3-L1) from mice were purchased from ATCC (American Type Culture Collection). DMEM culture medium, Trypsin/EDTA, FBS (fetal bovine serum), and BCS (Bovine calf serum) were purchased from Gibco (Invitrogen corporation). AdipoRed assay reagent for measurement was purchased from Cambrex. Specifically, 3T3-L1 preadipocytes were cultured in DMEM medium containing 10% BCS and antibiotics, and maintained in a CO 2 incubator with 5% carbon dioxide supply. The cells were seeded at a concentration of 1×10^6 cells in a 96-well plate and cultured until they reached 100% confluency. To measure adipocyte differentiation, the cells were treated with MD medium (0.5 mM 3-isobutyl-1-methylxanthine and 1 μM dexamethasone). After 2 days, the medium was replaced with DMEM medium containing 10% FBS, and further cultured for 6 days. Moringa powder and fermented Moringa extract were treated at various concentrations. […] After 10 minutes, fluorescence intensity was measured using a fluorescence intensity reader. Subsequently, the inhibitory effect on adipocyte differentiation in the six compounds isolated in Example 2 was measured. […]

Take `CC(=O)OC[C@H]1O[C@@H](Oc2c(-c3ccc(O)cc3)oc3cc(O)cc(O)c3c2=O)[C@H](O)[C@@H](O)[C@@H]1O` [MOFE-16-5, 6″-O-acetyl astragalin]: the “adipocyte differentiation inhibition activity of isolated compounds” value is reported as “excellent adipocyte differentiation inhibition activity”.
